From patent US9597407B2, “Targeted antimicrobial moieties” (C3 Jian, Inc., priority 2009, dated 2017) come the findings set out here.

Entries after “also recorded” stand apart in the source; their conditions may differ.

This assay has as its system bacteria. Nature of the assay: Binding of targeting peptides to microorganisms (Table 3). The note with it: peptide binding in aqueous buffers varied by peptide solubility; preferably 1x PBS.

For “1T-70 (NRQAQGERAHGEQQG; Peptide with targeting and/or antimicrobial activity) [Peptide 1T-70]”, the “Target(s) (microorganism bound by the targeting peptide)” value was “S. aureus; also recorded: C. jeikeium; also recorded: P. aeruginosa”.
In the case of “1T-71 (KIDTNQWPPNKEG; Peptide with targeting and/or antimicrobial activity) [Peptide 1T-71]”, the “Target(s) (microorganism bound by the targeting peptide)” value is recorded as “P. aeruginosa”.
For “1T-72 (EPTDGVACKER; Peptide with targeting and/or antimicrobial activity) [Peptide 1T-72]”, the “Target(s) (microorganism bound by the targeting peptide)” value is given as “P. aeruginosa”.
As for “1T-73 (GWWEELLHETILSKFKITKALELPIQL; Peptide with targeting and/or antimicrobial activity) [Peptide 1T-73]”, the entry is “S. pneumoniae”; as for “1T-74 (DIDWGRKISCAAGVAYGAIDGCATTV; Peptide with targeting and/or antimicrobial activity) [Peptide 1T-74]”, “S. pneumoniae”; as for “1T-75 (GVARGLQLGIKTRTQWGAATGAA; Peptide with targeting and/or antimicrobial activity) [Peptide 1T-75]”, “S. pneumoniae”.
For “1T-76 (EMRLSKFFRDFILWRKK; Peptide with targeting and/or antimicrobial activity) [Peptide 1T-76]”, the “Target(s) (microorganism bound by the targeting peptide)” value is reported as “S. pneumoniae”.
As for “1T-77 (EMRISRIILDFLFLRKK; Peptide with targeting and/or antimicrobial activity) [Peptide 1T-77]”, the entry is “S. pneumoniae”.
As for “1T-78 (FFKTIFVLILGALGVAAGLYIEKNYIDK; Peptide with targeting and/or antimicrobial activity) [Peptide 1T-78]”, the entry is “S. pneumoniae”; as for “1T-79 (FGTPWSITNFWKKNFNDRPDFDSDRRRY; Peptide with targeting and/or antimicrobial activity) [Peptide 1T-79]”, “S. pneumoniae”; as for “1T-80 (GGNLGPGFGVIIP; Peptide with targeting and/or antimicrobial activity) [Peptide 1T-80]”, “S. pneumoniae”.
On to “1T-81 (AIATGLDIVDGKFDGYLWA; Peptide with targeting and/or antimicrobial activity) [Peptide 1T-81]”, for which the “Target(s) (microorganism bound by the targeting peptide)” value is listed as “S. pneumoniae”.
To “1T-82 (FGVGVGIALFMAGYAIGKDLRKKFGKSC; Peptide with targeting and/or antimicrobial activity) [Peptide 1T-82]” belongs “S. pneumoniae”; to “1T-83 (QKPRKNETFIGYIQRYDIDGNGYQSLPCPQN; Peptide with targeting and/or antimicrobial activity) [Peptide 1T-83]”, “S. pneumoniae”.
To “1T-84 (FRKKRYGLSILLWLNAFTNLVNSIHAFYMTLF; Peptide with targeting and/or antimicrobial activity) [Peptide 1T-84]” belongs “S. pneumoniae”; to “1T-86 (HRKNPVLGVGRRHRAHNVA; Peptide with targeting and/or antimicrobial activity) [Peptide 1T-86]”, “S. mitis; also recorded: S. oralis; also recorded: S. salivarious”; to “1T-87 (EAVGQDLVDAHHP; Peptide with targeting and/or antimicrobial activity) [Peptide 1T-87]”, “S. mitis; also recorded: S. mutans; also recorded: S. oralis”.
As for “1T-89 (HEDDKRRGMSVEVLGFEVVQHEE; Peptide with targeting and/or antimicrobial activity) [Peptide 1T-89]”, the entry is “S. mitis; also recorded: S. mutans”; as for “1T-90 (RNVIGQVL; Peptide with targeting and/or antimicrobial activity) [Peptide 1T-90]”, “S. gordonii; also recorded: S. mitis; also recorded: S. mutans; also recorded: S. oralis; also recorded: S. sanguinis”; as for “1T-91 (TSVRPGAAGAAVPAGAAGAAGAGWRWP; Peptide with targeting and/or antimicrobial activity) [Peptide 1T-91]”, “S. mitis; also recorded: S. mutans; also recorded: S. oralis; also recorded: S. sanguinis”.
As to “1T-92 (GQDEGQRRAGVGEGQGVDG; Peptide with targeting and/or antimicrobial activity) [Peptide 1T-92]”, the “Target(s) (microorganism bound by the targeting peptide)” value was “S. mitis; also recorded: S. mutans”.
As for “1T-93 (AMRSVNQA; Peptide with targeting and/or antimicrobial activity) [Peptide 1T-93]”, the entry is “S. epidermidis; also recorded: S. gordonii; also recorded: S. mitis; also recorded: S. mutans; also recorded: S. oralis; also recorded: S. sanguinis”; as for “1T-94 (DQVAHSGDMLVQARRRDS; Peptide with targeting and/or antimicrobial activity) [Peptide 1T-94]”, “S. mitis; also recorded: S. mutans; also recorded: S. oralis”; as for “1T-95 (GHLLRVGGRVGGVGGVAGACAQPFGGQ; Peptide with targeting and/or antimicrobial activity) [Peptide 1T-95]”, “S. gordonii; also recorded: S. mitis; also recorded: S. mutans; also recorded: S. oralis; also recorded: S. sanguinis”.
As for “1T-96 (VAGACAQPFGGQ; Peptide with targeting and/or antimicrobial activity) [Peptide 1T-96]”, the entry is “S. gordonii; also recorded: S. mitis; also recorded: S. mutans; also recorded: S. oralis; also recorded: S. sanguinis”; as for “1T-99 (MKAWLGQ; Peptide with targeting and/or antimicrobial activity) [Peptide 1T-99]”, “S. gordonii; also recorded: S. mitis; also recorded: S. mutans; also recorded: S. oralis; also recorded: S. sanguinis”.
With “1T-100 (LDPLEPRIAPPGDRSHQGAPACHRDPLRGRSARDAER; Peptide with targeting and/or antimicrobial activity) [Peptide 1T-100]”, the “Target(s) (microorganism bound by the targeting peptide)” value is recorded as “S. gordonii; also recorded: S. mitis; also recorded: S. mutans”.
As for “1T-101 (RLRVGRATDLPLTSFAVGVVRNLPDAPAH; Peptide with targeting and/or antimicrobial activity) [Peptide 1T-101]”, the “Target(s) (microorganism bound by the targeting peptide)” value is “A. naeslundii; also recorded: P. gingivalis; also recorded: S. epidermidis; also recorded: S. gordonii; also recorded: S. mitis; also recorded: S. mutans; also recorded: S. oralis; also recorded: S. sanguinis”.
Take “1T-104 (RAVAAHLQGRHHGHQVRRQRHGQR; Peptide with targeting and/or antimicrobial activity) [Peptide 1T-104]”: the “Target(s) (microorganism bound by the targeting peptide)” value is on record as “S. mitis”.
